Where two headings read alike, the source gives them in different places.
Experiments:
[1] = in water, no additives used; cited from earlier work
[2] = Dissolution of lomustine in aqueous cyclodextrin solution (solubility); format: physicochemical
Text: However, they made an unexpected discovery that a methyl-β-CD (methyl-β-cyclodextrin) solution was able to dissolve lomustine crystals to the aqueous phase within a few seconds. They determined that the mechanism of this process is mostly related to co-dissolution rather than the formation of an inclusion complex as is often the case. In this respect, the formation of an inclusion complex usually takes from a few to several hours and requires constant mixing, heating and the use of a co-solvent such as ethanol or methanol.
The present invention provides a method of preparing a liposomal form of lomustine by (i) producing its aqueous solution of high concentration and (ii) then encapsulating it in the aqueous space of liposomes. Thanks to the use of selected cyclodextrins it is possible to obtain a high concentration of lomustine in water of ~20 mg / ml. The normal concentration of lomustine is not more than 0.11 mg/ml when no additives are used. This method makes it possible to encapsulate lomustine in the water space of liposomes in the form of its solution in water or/and inclusion complex with cyclodextrins, or to obtain the effect of co-dissolving lomustine and cyclodextrin in an aqueous solution. The main advantage of this solution is to limit the crystallization and escape of the drug from the liposomes by transferring it to an aqueous solution using not organic solvents such as ethanol, but various organic substances that can be administered intravenously without harming the patient and not damaging the liposomes as is the case with high concentrations of ethanol needed to obtain a high concentration of lomustine in water.
For this reason, they were looking for a way to effectively encapsulate the drug in the aqueous space of liposomes as a real solution. While searching for substances that could potentially enable the transfer of lomustine from its crystals to the aqueous phase, inventors unexpectedly discovered that a methyl-β-CD solution dissolved lomustine within a few seconds. […]

[3] = cited from earlier work

Compound: O=NN(CCCl)C(=O)NC1CCCCC1 [lomustine]
- normal concentration of lomustine [1]: not more than 0.11 mg/ml
- concentration of lomustine in solution ([2]; 25% methyl-β-CD solution, room temperature (R.T.)): at least 20 mg/ml
- time for dissolution of lomustine crystals to the aqueous phase ([2]; methyl-β-CD solution, room temperature): a few seconds
- concentration of lomustine in water ([2]; with selected cyclodextrins): ~ 20 mg / ml
- metabolites remaining in the body ([3]; 5 days after administration): 15-20%
- time until active metabolites appear in substantial concentrations in CSF ([3]; after oral administration): ≤ 30 min
- concentration of metabolites in the cerebrospinal fluid relative to plasma ([3]; in vivo): 150%
- cyclohexyl moiety of lomustine bound to plasma proteins ([3]; in vivo): About 600
- second phase plasma half-life ([3]; in vivo): 24 to 48 h
- detection of lomustine in cerebral spinal fluid (CSF) ([3]; oral, parent drug): not detectable
- bioavailability ([3]; orally administered): very low
- biotransformation half-life ([3]; throughout the body): less than 1 hour
- dose of the drug excreted as metabolites in the urine ([3]; within 24 hours): about half
- dose of the drug excreted as metabolites in the urine ([3]; within 4 days): less than 75%
